Data as given in the supplement of paper PMC10307832.

Legend:
Assay in all cases: relative viability (nuclei count vs DMSO), 5 days (fraction); higher = more cells survive
[1] = compound: O=c1[nH]cc(F)c(=O)[nH]1 [5-Fluorouracil] + Cc1nc(Nc2ncc(C(=O)Nc3c(C)cccc3Cl)s2)cc(N2CCN(CCO)CC2)n1 [Dasatinib] (partner 0.075 µM)
Procedure, shortened: (§1)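 After 5 days of treatment, lung cancer cells in 1536-well plates were fixed and stained in a single step (final 0.05% Triton X-100, 1% formaldehyde, 1 ug/ml Hoechst) and their nuclei counted on 4× images. Treatment had been applied by pin tool the day after seeding as one drug alone or as a fixed anchor-drug dose with five library-drug doses (not always all listed) in √10 steps. Relative viability is the nuclei count of treated wells divided by that of vehicle wells, and values are medians of duplicate plates.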

[2] = compound: CN[C@@H]1C[C@H]2O[C@@](C)([C@@H]1OC)n1c3ccccc3c3c4c(c5c6ccccc6n2c5c31)C(=O)NC4 [Staurosporine] + CC(=O)Nc1cccc(-n2c(=O)n(C3CC3)c(=O)c3c(Nc4ccc(I)cc4F)n(C)c(=O)c(C)c32)c1 [Trametinib] (partner 0.02 µM)
Procedure, shortened: as §1

[3] = compound: CC1=C(CC(=O)O)c2cc(F)ccc2/C1=C\c1ccc([S+](C)[O-])cc1 [Sulindac] + Cc1cc(Nc2cc(N3CCN(C)CC3)nc(Sc3ccc(NC(=O)C4CC4)cc3)n2)n[nH]1 [Tozasertib] (partner 0.1 µM)
Procedure, shortened: as §1

[4] = compound: CN[C@@H]1C[C@H]2O[C@@](C)([C@@H]1OC)n1c3ccccc3c3c4c(c5c6ccccc6n2c5c31)C(=O)NC4 [Staurosporine] + Nc1nc2[nH]cc(CCc3ccc(C(=O)N[C@@H](CCC(=O)O)C(=O)O)cc3)c2c(=O)[nH]1 [Pemetrexed] (partner 0.2 µM)
Procedure, shortened: as §1

Cell Line | relative viability ([1]; first compound 0.02 µM) | relative viability ([1]; first compound 0.2 µM) | relative viability ([1]; first compound 0.6325 µM) | relative viability ([1]; first compound 2 µM) | relative viability ([2]; first compound 0.005 µM) | relative viability ([2]; first compound 0.01581 µM) | relative viability ([2]; first compound 0.05 µM) | relative viability ([2]; first compound 0.1581 µM) | relative viability ([2]; first compound 0.5 µM) | relative viability ([3]; first compound 0.08 µM) | relative viability ([3]; first compound 0.253 µM) | relative viability ([3]; first compound 0.8 µM) | relative viability ([3]; first compound 2.53 µM) | relative viability ([3]; first compound 8 µM) | relative viability ([4]; first compound 0.005 µM) | relative viability ([4]; first compound 0.01581 µM) | relative viability ([4]; first compound 0.05 µM) | relative viability ([4]; first compound 0.1581 µM) | relative viability ([4]; first compound 0.5 µM)
HARA | 0.274 | 0.388 | 0.232 | 0.192 | 0.365 | 0.401 | 0.2 | 0.132 | 0.118 | 0.0822 | 0.0844 | 0.121 | 0.0886 | 0.103 | 0.195 | 0.167 | 0.134 | 0.138 | 0.168
HCC-15 | 0.701 | 0.713 | 0.417 | 0.275 | 0.305 | – | 0.192 | 0.192 | 0.165 | 0.29 | 0.423 | 0.318 | 0.421 | 0.37 | 0.217 | 0.188 | 0.189 | 0.157 | 0.134
HCC-78 | 0.34 | 0.427 | 0.322 | 0.254 | 0.806 | 0.676 | 0.484 | 0.407 | 0.428 | 0.445 | 0.476 | 0.403 | 0.42 | 0.367 | 0.978 | 0.893 | 0.882 | 0.927 | 0.881
HCC-366 | 0.559 | 0.61 | 0.249 | 0.0872 | 0.242 | – | 0.0839 | 0.0291 | 0.0289 | 0.104 | 0.148 | 0.199 | 0.111 | 0.198 | 0.133 | – | 0.0702 | 0.0274 | 0.0293
HCC-827 | 0.254 | 0.335 | 0.305 | 0.337 | 0.625 | 0.641 | 0.357 | 0.313 | 0.231 | 0.485 | 0.432 | 0.435 | 0.418 | 0.466 | 0.266 | 0.278 | 0.246 | 0.171 | 0.154
HOP-62 | 0.681 | 0.69 | 0.59 | 0.558 | 0.359 | 0.196 | 0.184 | 0.141 | 0.102 | 0.409 | 0.41 | – | 0.386 | 0.426 | 0.267 | 0.133 | 0.134 | 0.113 | 0.0837
LC-2-ad | 0.785 | 0.354 | 0.328 | 0.209 | 0.945 | 0.732 | 0.559 | 0.165 | 0.122 | 0.382 | 0.451 | 0.374 | 0.391 | 0.46 | 0.277 | 0.21 | 0.209 | 0.102 | 0.0993
LCLC-97TM1 | 0.79 | 0.978 | 0.837 | 0.745 | 0.168 | 0.115 | 0.103 | 0.0977 | 0.0977 | 0.231 | 0.289 | 0.217 | 0.163 | 0.247 | 0.185 | 0.111 | 0.186 | 0.149 | 0.117
LCLC-103H | 0.493 | 0.417 | 0.326 | 0.251 | 0.685 | 0.472 | 0.445 | 0.331 | 0.332 | 0.439 | 0.512 | 0.508 | 0.47 | 0.48 | 0.405 | 0.238 | 0.336 | 0.247 | 0.213
LK-2 | 0.42 | 0.29 | 0.256 | 0.237 | 0.906 | 0.781 | 0.701 | 0.669 | 0.333 | 0.186 | 0.178 | – | – | 0.189 | 0.331 | 0.255 | 0.269 | 0.0688 | 0.0539
LOU-NH91 | 0.566 | 0.598 | 0.501 | 0.304 | 0.673 | 0.493 | 0.511 | 0.341 | 0.303 | 0.634 | 0.662 | 0.636 | 0.636 | 0.744 | 0.339 | 0.304 | 0.336 | 0.255 | 0.274
LU99A | 0.575 | 0.655 | 0.567 | 0.4 | 0.461 | 0.243 | 0.23 | 0.182 | 0.133 | 0.265 | 0.266 | 0.285 | 0.252 | 0.286 | 0.178 | 0.168 | 0.16 | 0.114 | 0.119
LXF-289 | 0.192 | 0.202 | 0.152 | 0.154 | 0.741 | 0.409 | 0.412 | 0.274 | 0.237 | 0.176 | 0.167 | 0.195 | 0.176 | 0.205 | 0.812 | 0.182 | 0.307 | 0.0978 | 0.159
NCI-H23 | 0.789 | 0.991 | 0.475 | 0.278 | 0.315 | 0.165 | 0.172 | 0.0936 | 0.119 | 0.292 | – | 0.323 | 0.354 | 0.535 | 0.459 | 0.143 | 0.216 | 0.163 | 0.113
NCI-H322M | 0.279 | 0.243 | 0.242 | 0.234 | 0.518 | 0.418 | 0.342 | 0.45 | 0.432 | 0.483 | 0.485 | 0.47 | 0.51 | 0.499 | 0.608 | 0.501 | 0.451 | 0.423 | 0.388
NCI-H358 | 0.206 | 0.199 | 0.2 | 0.161 | 0.157 | 0.111 | 0.0885 | 0.0815 | 0.0672 | 0.112 | 0.0982 | 0.104 | 0.0899 | 0.102 | 0.165 | 0.158 | 0.102 | 0.102 | 0.0764
NCI-H441 | 0.748 | 0.63 | 0.49 | 0.278 | 0.373 | 0.186 | 0.168 | 0.133 | 0.0933 | 0.763 | 0.773 | 0.593 | 0.725 | 0.667 | 0.246 | 0.203 | 0.177 | 0.157 | 0.147
